Laboratory results from patent US20210195892A1, “COMPOSITION AND METHOD FOR MICROBIAL CONTROL ON MATERIAL SURFACES” (Microban Products Company, priority 2019, published 2021).
Counter-ions that a name gives are not always drawn.

Legend:
[1] = tested on: Aspergillus niger (An); assay: ASTM E2180 protocol, fungus; assay type: cell-based
[2] = Thermogravimetric analysis (TGA) at 10° C./min; assay type: physicochemical; conditions: for temperature at which volatization started: TGA 10° C./min, FIG. 2
[3] = tested on: bacteria; assay: Antibacterial efficacy of treated PP plaques (ISO 22196); assay type: cell-based; conditions: for bacterial efficacy per the ISO 22196 test: salts alone in PP, any active concentration up to 1%
Description: In addition to processing at 200° C., samples were run with PP at 250° C. to simulate the use of these GRAS acids in polymers that process at higher temperatures than polypropylene. Samples were also run using extended residence times in the injection molding machine (from the normal 30 second residence time to 120 seconds residence time) to simulate a process with a longer cycle time that would hold the polymer material at temperature for an extended period of time—the extended cycle were run at both 200° C. and 240° C.

| Structure (SMILES) | temperature at which volatization started [2] | bacterial efficacy per the ISO 22196 test [3] | further results |
| --- | --- | --- | --- |
| O=C(O)c1ccccc1 [GBA, benzoic acid] | approximately 100 °C | – | reduction in fungal growth ([1]; incorporated into EVA): over 90%; reductions in fungal growth ([1]; incorporated into PE): over 99% |
| O=C(O)CC(O)(CC(=O)O)C(=O)O [GCA, citric acid] | 200 °C | – | antibacterial efficacy ([3]; PP test plaques at 0.5% and 1% active level): good at the higher level but fell off at the lower level |
| C/C=C/C=C/C(=O)[O-].[K+] [GKS, potassium sorbate] | – | no significant bacterial efficacy | – |
| O=C([O-])c1ccccc1.[Na+] [GNB, sodium benzoate] | – | no significant bacterial efficacy | – |
| O=C(O)CC(O)(CC(=O)O)C(=O)O [GNC, sodium citrate] | – | no significant bacterial efficacy | weight loss in TGA ([2]; TGA 10° C./min up to 275° C., attributed to water content): approximately 10% |
| C/C=C/C=C/C(=O)O [GSA, sorbic acid] | approximately 100 °C | – | efficacy as low as (level in PP) ([3]; further experiments, PP): 1000 ppm |
